Read-outs that look alike come from different tables or passages of the source.
Tests used:
[1] = target: T1, HIV-1 (recombinant) reverse transcriptase (Human immunodeficiency virus type 1 group M subtype B, UniProt P03366); assay: Enzyme test: reverse transcription reaction in vitro with recombinant RT, wild type; format: biochemical
T1 construct: 20-50 nM HIV-1 (recombinant) reverse transcriptase
Description: (§1) In a final volume of 25 microlitres the following reagents were mixed: 50 mM Tris-HCl pH 7.5, 0.25 mg/ml BSA, 0.5 mM DTT, 20-50 nM HIV-1 (recombinant) reverse transcriptase, nucleotide substrate dTTP marked radioactively (^3H, 4 Ci/mmol) and nucleic acid (poly(rA)/oligo(dT)). The concentrations of dTTP and poly(rA)/oligo(dT) in standard conditions were 5 μM and 0.5 μM, respectively.
(§2) The reaction mixture is incubated 10 min. at 37° C. and 20 μl are removed and deposited on a GF/C Whatman glass fibre filter measuring 25 mm in diameter. The filters are washed 3 times for 5 min. in 5% trichloroacetic acid and once for 5 min. in absolute alcohol. After being dried, the filters are immersed in a scintillating mixture (Packard) and the acid precipitable radioactivity is measured by a scintillation counter for β-emitting isotopes (Beckman).
(§3) The dose-response curves obtained by means of samples of enzyme activity in the presence of increasing doses of inhibitor were analysed according to the equation E(%)=Emax/([…], where E(%) is the fraction of enzyme activity that is measurable in the presence of each concentration of inhibitor, Emax is the activity in the absence of an inhibitor, I is the concentration of inhibitor. The ID50 was calculated by analysing data using the GraphPad Prism graphic interpolation programme (for Macintosh).

[2] = target: T2, reverse transcriptase containing the mutation K103N (Human immunodeficiency virus type 1 group M subtype B, UniProt P03366, K702N); assay: Enzyme test with mutated reverse transcriptase K103N; format: biochemical, HIV-1
T2 construct: cloning the gene of the mutated RT in an expression vector for prokariotic cells; made in house
Description: as §1, §2
(§4) In some experiments, the HIV-1 recombinant reverse transcriptase was substituted by a reverse transcriptase containing the mutations K.103N and Y181I. They were produced by cloning the gene of the mutated RT in an expression vector for prokariotic cells according to the method reported in the literature (Maga G, Amacker M, Ruel N, Hubscher U, Spadari S. Resistance to nevirapine of HIV-1 reverse transcriptase mutants: loss of stabilizing interactions and thermodynamic or steric barriers are induced by different single amino acid substitutions. J Mol Biol. Dec. 19, 1997; 274(5):738-47).
as §3

[3] = target: T3, reverse transcriptase containing the mutation Y181I (Human immunodeficiency virus type 1 group M subtype B, UniProt P03366, Y780I); assay: Enzyme test with mutated reverse transcriptase Y181I; format: biochemical, HIV-1
T3 construct: cloning the gene of the mutated RT in an expression vector for prokariotic cells; made in house
Description: as §1, §2, §4, §3

[4] = test system: wild strain of HIV-1 NL4-3; assay: Inhibition of viral proliferation on culture cells (MT-4, MTT), wild strain; format: cell-based
Description: (§5) The biological activity of the compounds was evaluated on lymphoid cell lines MT-4 against the wild strain of HIV-1 NL4-3. The MT-4 cells were briefly infected with the appropriate HIV-1 or the infection was simulated to determine the cytoxicity, in the presence of different concentrations of potential inhibitor compounds. 5 days after the infection a colorimetric method was used that involves using a tetrazole salt (MTT) to evaluate the number of surviving cells. The mutant IRLL98 HIV-1 contains the following mutations in the coding sequence for RT:M41L, D67N, Y181C, M184V, R211K, T215Y (resistance to NRTI) and the mutations K101Q, Y181C, G190A (resistance to NNRTI). The H1V-1 mutants containing multi-NNRTI mutations, K103N or Y188L as mutants were supplied by the Medical Research Council Centralised Facility for AIDS Reagents, Herfordshire, UK.

HIV-1 mutant K103N = assay: Inhibition of viral proliferation on culture cells (MT-4, MTT), K103N mutant; format: cell-based
Description: as §5

HIV-1 mutant Y181C = assay: Inhibition of viral proliferation on culture cells (MT-4, MTT), Y181C mutant; format: cell-based
Description: as §5

HIV-1 mutant Y188L = assay: Inhibition of viral proliferation on culture cells (MT-4, MTT), Y188L mutant; format: cell-based
Description: as §5

[5] = Cytotoxicity in mock-infected MT-4 cells (MTT); format: cell-based; settings: human
Description: as §5

HIV-1 mutant Y181L = assay: Inhibition of viral proliferation on culture cells (MT-4, MTT), Y181L mutant; format: cell-based; settings: Human immunodeficiency virus 1, MT4, read-out: EC50 Y181L
[6] = Table 2, enzyme test, read-out: WT
[7] = Human immunodeficiency virus 1, NL43, read-out: NL4-3 wt
[8] = Human immunodeficiency virus 1, read-out: K100N
[9] = Human immunodeficiency virus 1, read-out: Y181C
[10] = Human immunodeficiency virus 1, read-out: Y188L
[11] = Table 1, recombinant RT wild type, read-out: ID50 WT

Structure (SMILES) | IC50 [1, 6] [µM] | IC50 [2] [µM] | IC50 [3] [µM] | EC50 [4, 7] [µM] | EC50 (HIV-1 mutant K103N; [8]) [µM] | EC50 (HIV-1 mutant Y181C; [9]) [µM] | EC50 (HIV-1 mutant Y188L; [10]) [µM] | CC50 at 5 days [5] [µM] | activity in cell tests on wild type, in words [4] | further results
Cc1c(C(C)c2c(F)cccc2F)nc(SCC=Cc2ccc([N+](=O)[O-])cc2)[nH]c1=O (stereo not drawn) [Compound 26m] | 0.283 | > 20 | > 20 | 0.14 | > 11.3 | > 11.3 | > 11.3 | > 11.3 |  | 
Cc1c(C(C)c2c(Cl)cccc2Cl)nc(SCC=Cc2ccc([N+](=O)[O-])cc2)[nH]c1=O (stereo not drawn) [Compound 26h] | 0.102 | > 20 | > 20 |  |  |  |  |  |  | 
CCc1c(C(C)c2c(F)cccc2F)nc(SCC=Cc2ccc(OC)cc2)[nH]c1=O (stereo not drawn) [Compound 26p] | 0.016 | 0.4 | > 20 | 0.0002 | 1.02 | 0.7 | 0.63 | 5.54 | nanomolar and subnanomolar activity | activity in cell tests on mutant K103N, in words (HIV-1 mutant K103N): micromolar and submicromolar activity; activity in cell tests on mutant Y181C, in words (HIV-1 mutant Y181C): micromolar and submicromolar activity; activity in cell tests on mutant Y188L, in words (HIV-1 mutant Y188L): micromolar and submicromolar activity
CCc1c(Cc2c(Cl)cccc2Cl)nc(SCC=Cc2ccc([N+](=O)[O-])cc2)[nH]c1=O [Compound 26f] | 2.5 | > 20 | > 20 |  |  |  |  |  |  | 
COc1ccc(C=CCSc2nc(C(C)c3c(F)cccc3F)c(C)c(=O)[nH]2)cc1 (stereo not drawn) [Compound 26n] | 0.292 | 3.7 | > 20 | 0.0002 | 0.26 | 0.13 | 0.07 | > 11.7 | nanomolar and subnanomolar activity | activity in cell tests on mutant K103N, in words (HIV-1 mutant K103N): micromolar and submicromolar activity; activity in cell tests on mutant Y181C, in words (HIV-1 mutant Y181C): micromolar and submicromolar activity; activity in cell tests on mutant Y188L, in words (HIV-1 mutant Y188L): micromolar and submicromolar activity
Cc1c(Cc2c(Cl)cccc2Cl)nc(SCC=Cc2ccc(N(C)C)cc2)[nH]c1=O [Compound 26d] | 0.788 |  |  | > 54.4 | > 54.4 | > 54.4 | > 54.4 | > 54.4 |  | 
C=Cc1nc(SC)nc(N(C)C)c1I [Compound 6a] |  |  |  |  |  |  |  |  |  | IC50 [1, 11]: > 400 µM
CCc1c(C(C)c2c(F)cccc2F)nc(SCC=Cc2ccc([N+](=O)[O-])cc2)[nH]c1=O (stereo not drawn) [Compound 26q] | 0.009 | > 20 | > 20 | 0.0004 | > 5.75 | > 5.75 | 1.94 | 5.75 | nanomolar and subnanomolar activity | 
C=Cc1cc(N(C)C)nc(SC)n1 [Compound 6c] |  |  |  |  |  |  |  | 57.4 |  | IC50 [1, 11]: > 400 µM; EC50 ([4]; Human immunodeficiency virus 1, NL43, MT4, read-out: EC50 NL4-3 wt): > 128 µM; EC50 (HIV-1 mutant K103N; Human immunodeficiency virus 1, MT4, read-out: EC50 K103N): > 128 µM; EC50 (HIV-1 mutant Y181L): > 128 µM
Cc1c(C(C)c2c(F)cccc2F)nc(SCC=Cc2ccc(C#N)cc2)[nH]c1=O (stereo not drawn) [Compound 26o] | 0.161 |  |  | 0.14 | > 59.1 | > 59.1 | > 59.1 | > 59.1 |  | 
CCc1c(Cc2c(Cl)cccc2Cl)nc(SCC=Cc2ccc(OC)cc2)[nH]c1=O [Compound 26e] | 0.056 | > 20 | > 20 | 0.0015 | > 0.19 | > 0.19 | > 0.19 | 0.19 | nanomolar and subnanomolar activity | 
C=Cc1cc(N(CC)CC)nc(S(C)(=O)=O)n1 [MB3B, reference compound] |  | > 400 | > 400 |  |  |  |  |  |  | IC50 [1, 11]: 21.3 µM
CCc1c(Cc2c(Cl)cccc2Cl)nc(SCC=Cc2ccc(C#N)cc2)[nH]c1=O [Compound 26c] | 0.188 |  |  | 1.73 | > 54.8 |  |  | > 54.8 |  | Y181C, % at given concentration (HIV-1 mutant Y181C; Table 2, at 54.82): 41% at
COc1ccc(C=CCSc2nc(C(C)c3c(Cl)cccc3Cl)c(C)c(=O)[nH]2)cc1 (stereo not drawn) [Compound 26g] | 0.018 | > 20 | > 20 | 0.009 | 2.47 | 3.6 | 1.26 | > 10.8 | nanomolar and subnanomolar activity | 
Cc1c(Cc2c(F)cccc2F)nc(SCC#Cc2ccc([N+](=O)[O-])cc2)[nH]c1=O [Compound 27a, 6-(2,6-Difluorobenzyl)-2-(3-(4-nitrophenyl)-propynylsulfanyl)-5-methylpyrimidine-4(3H)-one] |  |  |  |  |  | > 58.6 | > 58.6 | > 58.6 |  | IC50 ([1]; Table 3, enzyme test, read-out: WT): 0.416 µM; EC50 ([4]; Human immunodeficiency virus 1, NL43, read-out: NLA-3wt): 40.1 µM; EC50 (HIV-1 mutant K103N; Human immunodeficiency virus 1, read-out: K103N): > 58.6 µM
COc1ccc(/C=C/CSc2nc(Cc3c(Cl)cccc3Cl)c(C)c(=O)[nH]2)cc1 [Compound 26a] | 0.007 | 9 | > 20 | 0.015 | > 0.96 | > 0.96 | > 0.96 | 0.96 | nanomolar and subnanomolar activity | activity in cell tests on mutant K103N, in words (HIV-1 mutant K103N): micromolar and submicromolar activity; activity in cell tests on mutant Y181C, in words (HIV-1 mutant Y181C): micromolar and submicromolar activity; activity in cell tests on mutant Y188L, in words (HIV-1 mutant Y188L): micromolar and submicromolar activity
CCc1c(C(C)c2c(F)cccc2F)nc(SCC=Cc2ccc(C#N)cc2)[nH]c1=O (stereo not drawn) [Compound 26r] | 0.048 |  |  | 0.59 | > 27.2 | > 27.2 | > 27.2 | 27.2 |  | 
Cc1c(Cc2c(Cl)cccc2Cl)nc(SCC=Cc2ccc([N+](=O)[O-])cc2)[nH]c1=O [Compound 26b] | 3.81 | > 20 | > 20 | > 10.8 | > 10.8 | > 10.8 | > 10.8 | > 10.8 |  | 
COc1ccc(C#CCSc2nc(C(C)c3c(Cl)cccc3Cl)c(C)c(=O)[nH]2)cc1 (racemic) [Compound 27b] |  |  |  |  |  |  |  |  |  | EC50 ([4]; Table 3, cell test, read-out: NLA-3wt): 0.5 µM; EC50 (HIV-1 mutant K103N; Table 3, cell test, read-out: K103N): > 54.5 µM; EC50 (HIV-1 mutant Y181C; Table 3, cell test, read-out: Y181C): 33.5 µM; EC50 (HIV-1 mutant Y188L; Table 3, cell test, read-out: Y188L): 24.8 µM
COc1ccc(C=CCSc2nc(Cc3c(F)cccc3F)c(C)c(=O)[nH]2)cc1 [Compound 26l] | 0.25 | > 20 | > 20 | 0.043 | > 3.93 | > 3.93 | > 3.93 | 3.93 | nanomolar and subnanomolar activity | 
Cc1c(Cc2c(F)cccc2F)nc(SCC=Cc2ccc([N+](=O)[O-])cc2)[nH]c1=O [Compound 26i] | 11.9 | > 20 | > 20 | 0.26 | > 11.7 | > 11.7 | > 11.7 | 11.7 |  | 

Reference: US20100292260A1, “6-VINYL PYRIMIDINE AND PYRIMIDINONE DERIVATIVES AND THE USE THEREOF” (priority 2005, published 2010)
